Measured values: patent publication US10165777B2, “Substituted pyrazolylpyrazole derivative and use of same as herbicide” (KYOYU AGRI CO., LTD., priority 2015, dated 2019)

Legend:
Assay type in all cases: in vivo
Echinochloa crus-galli = assay: Paddy herbicidal activity test; conditions: irrigated pot, treated at 3.5 leaf stage of Echinochloa crus-galli, 30 days
Protocol: (§1) 1. Paddy Herbicidal Activity Test Rice paddy soil was filled into a 1/10000 are pot followed by the addition of suitable amounts of water and chemical fertilizer, kneading, seeding with Echinochloa crus-galli, Monochoria vaginalis and Scirpus juncoides and maintaining in an irrigated state at a water depth of 3 cm. Wettable powders of Target Compound (I) shown in Table 1 prepared in compliance with the preparation examples were diluted with a suitable amount of water, rice plants in the 2.0 leaf stage were transplanted during 3.5 leaf stage of Echinochloa crus-galli, and treated by dropping in chemical in the prescribed amount per 10 are using a pipette. After treating for 30 days in a glass greenhouse at an average atmospheric temperature of 30° C., the herbicidal efficacy thereof was investigated. Evaluation of herbicidal efficacy was carried out by comparing growth inhibition rate (%) with an untreated group, while evaluation of phytotoxicity was carried out by comparing growth inhibition rate (%) with the state of a complete eradication group, and were evaluated at 11 levels indicated below.

Monochoria vaginalis = assay: Paddy herbicidal activity test; conditions: irrigated pot, 30 days
Protocol: as §1

Scirpus juncoides = assay: Paddy herbicidal activity test; conditions: irrigated pot, 30 days
Protocol: as §1

Oryza sativa = assay: Paddy herbicidal activity test, phytotoxicity to transplanted rice; conditions: rice transplanted in 2.0 leaf stage, 30 days
Protocol: as §1

Amaranthus retroflexus [1] = assay: Farming soil treatment test; conditions: soil surface spray prior to weed growth, 30 days
Protocol: (§2) Field soil was filled into a 1/6000 are pot followed by seeding with Digitaria ciliaris, Chenopodium album and Amaranthus retroflexus and covering with soil. Wettable powders of compounds of formula (I) shown in Table 1 prepared in compliance with the preparation examples were diluted with water to the prescribed amount of chemical and uniformly sprayed onto each soil surface layer using 100 liters of sprayed water per 10 are prior to weed growth following seeding. After treating for 30 days in a glass greenhouse at an average atmospheric temperature of 30° C., the herbicidal efficacy thereof was investigated. Evaluation of herbicidal efficacy was carried out in the same manner as the above-mentioned Test Example 1.

Chenopodium album [2] = assay: Farming soil treatment test; conditions: soil surface spray prior to weed growth, 30 days
Protocol: as §2

Digitaria ciliaris [3] = assay: Farming soil treatment test; conditions: soil surface spray prior to weed growth, 30 days
Protocol: as §2

Amaranthus retroflexus [4] = assay: Weed foliar treatment test (Test 3, 1.0 to 2.0 leaf stage); conditions: foliar spray at 1.0 to 2.0 leaf stage of Digitaria ciliaris, 3 weeks
Protocol: (§3) Soil was filled into a 1/6000 are pot followed by seeding with Digitaria ciliaris, Chenopodium album and Amaranthus retroflexus, covering with soil, and cultivating in a glass greenhouse at an average atmospheric temperature of 25° C. Wettable powders of Target Compound (I) shown in Table 1 prepared in compliance with the preparation examples were diluted with water to the prescribed amount of chemical and uniformly sprayed onto the weeds using 150 liters of sprayed water per 10 are when Digitaria ciliaris had grown to the 1.0 to 2.0 leaf stage. After treating for 3 weeks in a glass greenhouse at an average atmospheric temperature of 25° C., the herbicidal efficacy thereof was investigated. Evaluation of herbicidal efficacy was carried out in the same manner as the above-mentioned Test Example 1.

Chenopodium album [5] = assay: as above; conditions: foliar spray at 1.0 to 2.0 leaf stage of Digitaria ciliaris, 3 weeks
Protocol: as §3

Digitaria ciliaris [6] = assay: as above; conditions: foliar spray at 1.0 to 2.0 leaf stage of Digitaria ciliaris, 3 weeks
Protocol: as §3

Digitaria ciliaris [7] = assay: Weed foliar treatment test (Test 4, 4.0 to 5.0 leaf stage); conditions: 10 g a.i./10 a; foliar spray at 4.0 to 5.0 leaf stage of Digitaria ciliaris (plant height 10 cm to 15 cm); 20 days
Protocol: (§4) Field soil was filled into a 1/4500 are pot followed by seeding with Digitaria ciliaris and Galinsoga parviflora, covering with soil and cultivating in a glass greenhouse at an average atmospheric temperature of 25° C.
(§5) Wettable powders of Target Compound (I) shown in Table 1 prepared in compliance with the preparation examples were diluted with water to the prescribed amount of chemical and uniformly sprayed onto the weeds using 100 liters of sprayed water per 10 are when Digitaria ciliaris had grown to the 4.0 to 5.0 leaf stage (plant height: 10 cm to 15 cm).
(§6) After treating for 20 days in a glass greenhouse at an average atmospheric temperature of 25° C., the herbicidal efficacy thereof was investigated.
(§7) Evaluation of herbicidal efficacy was carried out in the same manner as the above-mentioned Test Example 1.

Galinsoga parviflora = assay: as above; conditions: 10 g a.i./10 a; foliar spray at 4.0 to 5.0 leaf stage of Digitaria ciliaris; 20 days
Protocol: as §4, §5, §6, §7

## N#Cc1cnn(-c2nn3c(c2Br)CCCC3)c1/C=C/c1ccccn1 [Compound 3.44, reference compound]
Echinochloa crus-galli; 1 g a.i./10 a
  herbicidal efficacy, Echinochloa crus-galli: 1 (10% to less than 20%)
Echinochloa crus-galli; 5 g a.i./10 a
  herbicidal efficacy, Echinochloa crus-galli: 2 (20% to less than 30%)
Monochoria vaginalis; 1 g a.i./10 a
  herbicidal efficacy, Monochoria vaginalis: 2 (20% to less than 30%)
Monochoria vaginalis; 5 g a.i./10 a
  herbicidal efficacy, Monochoria vaginalis: 2 (20% to less than 30%)
Scirpus juncoides; 1 g a.i./10 a
  herbicidal efficacy, Scirpus juncoides: 0 (0% to less than 10% (growth inhibition rate))
Scirpus juncoides; 5 g a.i./10 a
  herbicidal efficacy, Scirpus juncoides: 1 (10% to less than 20%)
Oryza sativa; 1 g a.i./10 a
  phytotoxicity, Oryza sativa: 0 (0% to less than 10% (growth inhibition rate))
Oryza sativa; 5 g a.i./10 a
  phytotoxicity, Oryza sativa: 1 (10% to less than 20%)
Amaranthus retroflexus [1]; 5 g a.i./10 a
  herbicidal efficacy, Amaranthus retroflexus: 0 (0% to less than 10% (growth inhibition rate))
Amaranthus retroflexus [1]; 10 g a.i./10 a
  herbicidal efficacy, Amaranthus retroflexus: 2 (20% to less than 30%)
Chenopodium album [2]; 5 g a.i./10 a
  herbicidal efficacy, Chenopodium album: 2 (20% to less than 30%)
Chenopodium album [2]; 10 g a.i./10 a
  herbicidal efficacy, Chenopodium album: 3 (30% to less than 40%)
Digitaria ciliaris [3]; 5 g a.i./10 a
  herbicidal efficacy, Digitaria ciliaris: 0 (0% to less than 10% (growth inhibition rate))
Digitaria ciliaris [3]; 10 g a.i./10 a
  herbicidal efficacy, Digitaria ciliaris: 1 (10% to less than 20%)
Amaranthus retroflexus [4]; 5 g a.i./10 a
  herbicidal efficacy, Amaranthus retroflexus: 0 (0% to less than 10% (growth inhibition rate))
Amaranthus retroflexus [4]; 10 g a.i./10 a
  herbicidal efficacy, Amaranthus retroflexus: 0 (0% to less than 10% (growth inhibition rate))
Chenopodium album [5]; 5 g a.i./10 a
  herbicidal efficacy, Chenopodium album: 1 (10% to less than 20%)
Chenopodium album [5]; 10 g a.i./10 a
  herbicidal efficacy, Chenopodium album: 2 (20% to less than 30%)
Digitaria ciliaris [6]; 5 g a.i./10 a
  herbicidal efficacy, Digitaria ciliaris: 0 (0% to less than 10% (growth inhibition rate))
Digitaria ciliaris [6]; 10 g a.i./10 a
  herbicidal efficacy, Digitaria ciliaris: 0 (0% to less than 10% (growth inhibition rate))
Digitaria ciliaris [7]
  herbicidal efficacy, Digitaria ciliaris: 0 (0% to less than 10% (growth inhibition rate))
Galinsoga parviflora
  herbicidal efficacy, Galinsoga parviflora: 0 (0% to less than 10% (growth inhibition rate))
